Data reported in paper PMC10653547, “Synergistic effect of two antimicrobial peptides, BP203 and MAP-0403 J-2 with conventional antibiotics against colistin-resistant Escherichia coli and Klebsiella pneumoniae clinical isolates” (PLOS ONE, 2023).

Experiments:
[1] = test system: colistin-resistant E. coli clinical isolates; test: Disk diffusion antimicrobial susceptibility testing (CLSI); format: cell-based, Escherichia coli; conditions: for %Resistance: ten E. coli isolates, disk diffusion
Procedure: (§1) Ten non-duplicate clinical isolates of colistin-resistant E. coli (EC) and ten non-duplicate clinical isolates of colistin-resistant K. pneumoniae (KP) were obtained from the bacterial repository of the Division of Infectious Diseases and Tropical Medicine, Department of Medicine, Faculty of Medicine Siriraj Hospital, Mahidol University. The species identification was conducted through standard biochemical tests. Antimicrobial susceptibility testing was carried out using the disk diffusion method following CLSI guidelines. Additionally, the assessment of colistin resistance in all isolates was performed by broth microdilution following CLSI recommendations. […] The amino acid sequences of BP203 and MAP-0403 J-2 were retrieved from previous studies. These peptides are BP100 and MAP-0403 analogs, respectively. […] Antibiotic disks and defibrinated sheep blood were obtained from Oxoid (Basingstoke, UK). All culture media were purchased from Becton Dickinson (Frankin Lakes, NJ, USA). All chemicals were obtained from Sigma-Aldrich (St. Louis, MO, USA).

[2] = test system: colistin-resistant K. pneumoniae clinical isolates; test: as above; format: cell-based, Klebsiella pneumoniae; conditions: for %Resistance: ten K. pneumoniae isolates, disk diffusion; on Interpreted results of disk diffusion: key: R: resistant; I: intermediate; SDD: susceptible-dose dependent; S: sensitive
Procedure: as §1

| SMILES | Interpreted results of disk diffusion ([1]; EC-01) | Interpreted results of disk diffusion ([1]; EC-02) | Interpreted results of disk diffusion ([1]; EC-03) | Interpreted results of disk diffusion ([1]; EC-04) | Interpreted results of disk diffusion ([1]; EC-05) | Interpreted results of disk diffusion ([1]; EC-06) | Interpreted results of disk diffusion ([1]; EC-07) | Interpreted results of disk diffusion ([1]; EC-08) | Interpreted results of disk diffusion ([1]; EC-09) | Interpreted results of disk diffusion ([1]; EC-10) | %Resistance [1] [%] | Interpreted results of disk diffusion ([2]; KP-01) | Interpreted results of disk diffusion ([2]; KP-02) | Interpreted results of disk diffusion ([2]; KP-03) | Interpreted results of disk diffusion ([2]; KP-04) | Interpreted results of disk diffusion ([2]; KP-05) | Interpreted results of disk diffusion ([2]; KP-06) | Interpreted results of disk diffusion ([2]; KP-07) | Interpreted results of disk diffusion ([2]; KP-08) | %Resistance [2] [%] | also measured |
| --- | --- | --- | --- | --- | --- | --- | --- | --- | --- | --- | --- | --- | --- | --- | --- | --- | --- | --- | --- | --- | --- |
| NCC[C@H](O)C(=O)N[C@@H]1C[C@H](N)[C@@H](O[C@H]2O[C@H](CN)[C@@H](O)[C@H](O)[C@H]2O)[C@H](O)[C@H]1O[C@H]1O[C@H](CO)[C@@H](O)[C@H](N)[C@H]1O [AK, amikacin] | S | S | S | S | S | S | S | S | S | S | 0 | S | R | R | R | I | R | S | S | 40 | Interpreted results of disk diffusion ([2]; KP-09): S; Interpreted results of disk diffusion ([2]; KP-10): S |
| C[C@H]1[C@H](NC(=O)/C(=N\OC(C)(C)C(=O)O)c2csc(N)n2)C(=O)N1S(=O)(=O)O [ATM, aztreonam] | R | R | R | R | S | I | R | S | R | R | 70 |  |  |  |  |  |  |  |  | 100 |  |
| CO/N=C(\C(=O)N[C@@H]1C(=O)N2C(C(=O)O)=C(CSc3nc(=O)c(=O)[nH]n3C)CS[C@H]12)c1csc(N)n1 [CRO, ceftriaxone] | R | R | R | R | R | R | R | R | R | R | 100 | R | R | R | R | R | R | R | R | 100 | Interpreted results of disk diffusion ([2]; KP-09): R; Interpreted results of disk diffusion ([2]; KP-10): R |
| C[C@@H](O)[C@H]1C(=O)N2C(C(=O)O)=C(S[C@@H]3CN[C@H](C(=O)Nc4cccc(C(=O)O)c4)C3)[C@H](C)[C@H]12 [ETP, ertapenem] | S | S | S | S | S | S | S | S | S | S | 0 | R | R | R | R | R | R | R | R | 100 | Interpreted results of disk diffusion ([2]; KP-09): R; Interpreted results of disk diffusion ([2]; KP-10): R |
| CO/N=C(\C(=O)N[C@@H]1C(=O)N2C(C(=O)[O-])=C(C[N+]3(C)CCCC3)CS[C@H]12)c1csc(N)n1 [FEP, cefepime] | R | R | R | R | SDD | S | R | SDD | R | R | 70 | R | R | R | R | R | R | R | R | 100 | Interpreted results of disk diffusion ([2]; KP-09): R; Interpreted results of disk diffusion ([2]; KP-10): R |
| C[C@@H]1O[C@@H]1P(=O)(O)O [FOS, fosfomycin] | S | S | S | R | S | S | S | S | S | S | 10 | S | R | I | R | S | R | S | R | 60 | Interpreted results of disk diffusion ([2]; KP-09): R; Interpreted results of disk diffusion ([2]; KP-10): R |
| CO[C@@]1(NC(=O)Cc2cccs2)C(=O)N2C(C(=O)O)=C(COC(N)=O)CS[C@@H]21 [FOX, cefoxitin] | S | S | S | I | S | S | S | S | S | S | 0 | R | R | R | R | R | R | R | R | 100 | Interpreted results of disk diffusion ([2]; KP-09): R; Interpreted results of disk diffusion ([2]; KP-10): R |
| CNC(C)C1CCC(N)C(OC2C(N)CC(N)C(OC3OCC(C)(O)C(NC)C3O)C2O)O1 (stereo not shown) [GM, gentamicin] | R | S | R | R | R | R | S | R | R | R | 80 | S | R | S | S | S | S | S | S | 10 | Interpreted results of disk diffusion ([2]; KP-09): S; Interpreted results of disk diffusion ([2]; KP-10): S |
